Measured values published in publication PMC5114558, “Reader domain specificity and lysine demethylase-4 family function” (Nature Communications, 2016).
Where two headings read alike, the source gives them in different places. Non-standard residues stand in square brackets, D forms with d. Residues, ends and D or L forms follow the SMILES beside them. *: point of attachment. 5FAM = O=C1OC2(c3ccc(O)cc3Oc3cc(O)ccc32)c2ccc(C(=O)*)cc21; Lys(Me3) = C[N+](C)(C)CCCC[C@H](N)C(=O)O

Biological target: T1, KDM4A DTD (human KDM4A double tudor domain, 895–1011aa) (Homo sapiens, UniProt O75164)
T1 construct: DNA encoding DTDs (KDM4A 895–1011aa, KDM4B 917–1031aa and KDM4C 877–991aa); (His)6-HaloTag (pFN29) or (His)6 (pET28b); made in house; host or cells: Escherichia coli BL21 (DE3)
T1 sequence (O75164 895-1011): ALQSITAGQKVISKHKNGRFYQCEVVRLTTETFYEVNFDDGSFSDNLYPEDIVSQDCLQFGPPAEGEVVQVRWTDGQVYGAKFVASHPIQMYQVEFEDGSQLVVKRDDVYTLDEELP
Experiment: fluorescence polarization (FP) binding, KDM4A-DTD wild-type
Excerpt: KDM4 protein sequences used in this study correspond to Uniprot ID: O75164 (human KDM4A, isoform 1), O94953 (human KDM4B, isoform1) and Q9H3R0 (human KDM4C, isoform1). Plasmid encoding KDM4A DTD was kindly provided by R-M Xu (Chinese Academy of Sciences). Complementary DNA encoding human KDM4B-DTD was synthesized (Integrated DNA Technologies). Plasmid containing cDNA of full-length KDM4C (clone ID: HsCD00341594) was obtained from Harvard Plasmid Repository. DNA encoding DTDs (KDM4A 895–1011aa, KDM4B 917–1031aa and KDM4C 877–991aa) were cloned into pFN29 (Promega) with N-terminal (His)6-HaloTag or pET28b with N-terminal (His)6 Tag using In-Fusion HD cloning kit (Clontech). Plasmids encoding Xenopus laevis core histones were a generous gift of K. Luger (University of Colorado-Boulder). Site-directed mutagenesis was performed with Q5 Site-Directed Mutagenesis Kit (New England Biolabs).
Peptide sequences are given in Supplementary Table 1. […] A no-protein control with only peptide probe was included. Polarization at each concentration was measured as triplicates in 384-well polystyrene black microplates (Thermo Fisher Scientific 262260) by Biotek Synergy H4 multimode plate reader (light source: xenon flash, offset from top: 7 mm, sensitivity: 60%, excitation: 485/20 nm, emission: 528/20 nm, both parallel and perpendicular, normal read speed). Fraction bound (Fb) at each concentration was calculated based on the corresponding polarization values (P): Fbc=(Pc−Pmin)/(Pmax−Pmin), where Pmin is the polarization value of no-protein control and Pmax is the polarization value of the saturation value for that peptide. Dissociation constants (Kd) were derived by KaleidaGraph, Synergy Software (version 4.1.3) using the following equation: Fb=[protein]/([protein]+Kd).

[1] = Fig. 2e,g,i,j and Fig. 4g,i, pH 7.4, ± s.d. from three experimental replicates, read-out: binding affinity, KDM4A-DTD wild-type (WT)

Kd [1] [µM]	Structure (SMILES)	other results
–	CC(C)C[C@H](NC(=O)[C@H](CCC(N)=O)NC(=O)[C@H](CCCCN)NC(=O)[C@H](CCCNC(=N)N)NC(=O)[C@@H]1CCCN1C(=O)[C@H](C)NC(=O)[C@H](CCCC[N+](C)(C)C)NC(=O)CNC(=O)CNC(=O)[C@@H](NC(=O)[C@H](CO)NC(=O)[C@H](CCCCN)NC(=O)[C@H](CCCNC(=N)N)NC(=O)[C@H](C)NC(=O)c1ccc2c(c1)C(=O)OC21c2ccc(O)cc2Oc2cc(O)ccc21)[C@@H](C)O)C(=O)N[C@@H](C)C(=O)N[C@H](C(=O)N[C@@H](CCCCN)C(=O)O)[C@@H](C)O [H3K14me3] (5FAM-ARKSTGG[Lys(Me3)]APRKQLATK-OH)	Kd (matrix Fig. 1d and Fig. 3c, pH 7.4, read-out: binding affinity (Kd), KDM4A DTD wild-type): 109 µM
98.6 ± 5.4	CNCCCC[C@H](NC(=O)[C@@H](NC(=O)[C@H](C)NC(=O)[C@H](CC(C)C)NC(=O)[C@H](CCC(N)=O)NC(=O)[C@H](CCCCN)NC(=O)[C@H](CCCNC(=N)N)NC(=O)c1ccc2c(c1)C(=O)OC21c2ccc(O)cc2Oc2cc(O)ccc21)[C@@H](C)O)C(=O)N[C@@H](C)C(=O)N[C@@H](C)C(=O)N[C@@H](CCCNC(=N)N)C(=O)N[C@@H](CCCCN)C(=O)N[C@@H](CO)C(=O)N[C@@H](C)C(=O)N1CCC[C@H]1C(=O)N[C@@H](C)C(=O)N[C@H](C(=O)O)[C@@H](C)O [H3K23me1]	–
–	CC(C)C[C@H](NC(=O)[C@H](CCC(N)=O)NC(=O)[C@H](CCCCN)NC(=O)[C@H](CCCNC(=N)N)NC(=O)c1ccc2c(c1)C(=O)OC21c2ccc(O)cc2Oc2cc(O)ccc21)C(=O)N[C@@H](C)C(=O)N[C@H](C(=O)N[C@@H](CCCCN(C)C)C(=O)N[C@@H](C)C(=O)N[C@@H](C)C(=O)N[C@@H](CCCNC(=N)N)C(=O)N[C@@H](CCCCN)C(=O)N[C@@H](CO)C(=O)N[C@@H](C)C(=O)N1CCC[C@H]1C(=O)N[C@@H](C)C(=O)N[C@H](C(=O)O)[C@@H](C)O)[C@@H](C)O [H3K23me2]	Kd (pH 7.4, read-out: Kd, KDM4A-DTD wild-type): 9.06 µM
32.3 ± 1.8	CC(C)C[C@H](NC(=O)[C@H](CCC(N)=O)NC(=O)[C@H](CCCCN)NC(=O)[C@H](CCCNC(=N)N)NC(=O)c1ccc2c(c1)C(=O)OC21c2ccc(O)cc2Oc2cc(O)ccc21)C(=O)N[C@@H](C)C(=O)N[C@H](C(=O)N[C@@H](CCCC[N+](C)(C)C)C(=O)N[C@@H](C)C(=O)N[C@@H](C)C(=O)N[C@@H](C)C(=O)N[C@@H](CCCCN)C(=O)N[C@@H](CO)C(=O)N[C@@H](C)C(=O)N1CCC[C@H]1C(=O)N[C@@H](C)C(=O)N[C@H](C(=O)O)[C@@H](C)O)[C@@H](C)O [H3K23me3R26A] (5FAM-RKQLAT[Lys(Me3)]AAAKSAPAT-OH)	–
83.7 ± 4.1	CC(C)C[C@H](NC(=O)[C@H](CCC(N)=O)NC(=O)[C@H](CCCCN)NC(=O)[C@H](CCCNC(=N)N)NC(=O)c1ccc2c(c1)C(=O)OC21c2ccc(O)cc2Oc2cc(O)ccc21)C(=O)N[C@@H](C)C(=O)N[C@H](C(=O)N[C@@H](CCCC[N+](C)(C)C)C(=O)N[C@@H](C)C(=O)N[C@@H](C)C(=O)N[C@@H](CCCNC(=N)N)C(=O)N[C@@H](CCCCN)C(=O)N[C@@H](CO)C(=O)N[C@@H](C)C(=O)N1CCC[C@H]1C(=O)N[C@@H](C)C(=O)N[C@H](C(=O)O)[C@@H](C)O)[C@@H](C)OP(=O)(O)O [H3T22phK23me3]	–
